HELM strings list units from the 5' end as sugar, base in round brackets, then linkage (d deoxyribose, r ribose, m 2'-O-methyl, p phosphodiester). Strings are as the collection lists them; they lack the last nucleoside at the 3' end of the tested compound. [moe] = 2'-O-(2-methoxyethyl) (MOE); [sp] = phosphorothioate linkage; [m5C] = 5-methylcytosine
Target: UBE3A-ATS
Assay: mouse, dose not given
Settings: ASO

Question: For “RNA1{[moe](A)[sp].[moe](A)[sp].[moe](G)[sp].[moe](G)[sp].[moe](G)[sp].d(T)[sp].d(A)[sp].d(A)[sp].d(T)[sp].d(A)[sp].d([m5C])[sp].d(G)[sp].d(G)[sp].d(A)[sp].d([m5C])[sp].[moe]([m5C])[sp].[moe](T)[sp].[moe]([m5C])[sp].[moe](A)}$$$$ (last 3' nucleoside missing)”, which 3 h FOB score is on record?
Answer: Its 3 h FOB score is 6.5 score 0-7.

Question: “RNA1{[moe](A)[sp].[moe](A)p.[moe](A)p.[moe](A)p.[moe](T)p.d(A)[sp].d([m5C])[sp].d([m5C])[sp].d(A)[sp].d([m5C])[sp].d(A)[sp].d(A)[sp].d(A)[sp].d(G)[sp].d(A)[sp].[moe](T)p.[moe](A)p.[moe](G)[sp].[moe](G)}$$$$ (last 3' nucleoside missing)” was tested. Which 3 h FOB score did it give?
Answer: The 3 h FOB score was 2.5 score 0-7.

Question: Which 3 h FOB score does the source give for “RNA1{[moe](A)[sp].[moe](A)p.[moe](A)p.[moe](A)p.[moe](T)p.d([m5C])[sp].d([m5C])[sp].d(A)[sp].d(T)[sp].d(T)[sp].d(T)[sp].d(G)[sp].d(T)[sp].d([m5C])[sp].d([m5C])[sp].[moe](A)p.[moe](G)p.[moe](T)[sp].[moe]([m5C])}$$$$ (last 3' nucleoside missing)” here?
Answer: The 3 h FOB score was 2.3 score 0-7.

Question: With “RNA1{[moe](A)[sp].[moe](A)p.[moe](A)p.[moe](A)p.[moe]([m5C])p.d(G)[sp].d([m5C])[sp].d(A)[sp].d(A)[sp].d(T)[sp].d(G)[sp].d(T)[sp].d(A)[sp].d(T)[sp].d([m5C])[sp].[moe](A)p.[moe](G)p.[moe](G)[sp].[moe]([m5C])}$$$$ (last 3' nucleoside missing)” as the substance, how does the 3 h FOB score read?
Answer: The 3 h FOB score was 0.7 score 0-7.

Question: For “RNA1{[moe](A)[sp].[moe](A)p.[moe](A)p.[moe](T)p.[moe]([m5C])p.d([m5C])[sp].d(A)[sp].d(T)[sp].d(T)[sp].d(T)[sp].d(G)[sp].d(T)[sp].d([m5C])[sp].d([m5C])[sp].d(A)[sp].[moe](G)p.[moe](T)p.[moe]([m5C])[sp].[moe](T)}$$$$ (last 3' nucleoside missing)”, which 3 h FOB score is on record?
Answer: The 3 h FOB score was 4.2 score 0-7.

Question: With “RNA1{[moe](A)[sp].[moe](A)p.[moe](A)p.[moe]([m5C])p.[moe](G)p.[moe]([m5C])p.d(A)[sp].d(A)[sp].d(T)[sp].d(G)[sp].d(T)[sp].d(A)[sp].d(T)[sp].d([m5C])[sp].d(A)[sp].d(G)[sp].[moe](G)p.[moe]([m5C])[sp].[moe](A)}$$$$ (last 3' nucleoside missing)” as the substance, how does the 3 h FOB score read?
Answer: Its 3 h FOB score is 3 score 0-7.

Question: For “RNA1{[moe](A)[sp].[moe](A)p.[moe](A)p.[moe]([m5C])p.d(G)[sp].d([m5C])[sp].d(A)[sp].d(A)[sp].d(T)[sp].d(G)[sp].d(T)[sp].d(A)[sp].d(T)[sp].d([m5C])[sp].[moe](A)p.[moe](G)p.[moe](G)p.[moe]([m5C])[sp].[moe](A)}$$$$ (last 3' nucleoside missing)”, which 3 h FOB score is on record?
Answer: Its 3 h FOB score is 2 score 0-7.

Question: “RNA1{[moe](A)[sp].[moe](A)p.[moe](G)p.[moe](T)p.[moe](A)p.d(T)[sp].d(A)[sp].d(G)[sp].d(A)[sp].d(T)[sp].d(G)[sp].d([m5C])[sp].d([m5C])[sp].d(T)[sp].d([m5C])[sp].[moe](T)p.[moe]([m5C])p.[moe]([m5C])[sp].[moe](T)}$$$$ (last 3' nucleoside missing)” was tested. Which 3 h FOB score did it give?
Answer: Its 3 h FOB score is 4 score 0-7.

Question: For “RNA1{[moe](A)[sp].[moe](A)p.[moe](G)p.[moe](T)p.[moe](G)p.d(G)[sp].d(A)[sp].d(T)[sp].d([m5C])[sp].d(T)[sp].d([m5C])[sp].d(T)[sp].d(T)[sp].d(G)[sp].d(G)[sp].[moe](G)p.[moe]([m5C])p.[moe](A)[sp].[moe](G)}$$$$ (last 3' nucleoside missing)”, which 3 h FOB score is on record?
Answer: The 3 h FOB score was 4.8 score 0-7.

Question: For “RNA1{[moe](A)[sp].[moe](A)p.[moe](G)p.[moe](T)p.[moe]([m5C])p.d(A)[sp].d(T)[sp].d(T)[sp].d([m5C])[sp].d([m5C])[sp].d([m5C])[sp].d([m5C])[sp].d(A)[sp].d([m5C])[sp].d([m5C])[sp].[moe]([m5C])p.[moe](T)p.[moe](G)[sp].[moe](G)}$$$$ (last 3' nucleoside missing)”, which 3 h FOB score is on record?
Answer: Its 3 h FOB score is 1.8 score 0-7.

Question: “RNA1{[moe](A)[sp].[moe](A)p.[moe]([m5C])p.[moe](A)p.[moe](A)p.d([m5C])[sp].d(G)[sp].d(G)[sp].d(T)[sp].d(T)[sp].d(G)[sp].d([m5C])[sp].d(A)[sp].d(G)[sp].d(G)[sp].[moe](G)p.[moe](A)p.[moe]([m5C])[sp].[moe](A)}$$$$ (last 3' nucleoside missing)” was tested. Which 3 h FOB score did it give?
Answer: Its 3 h FOB score is 6.8 score 0-7.

Question: “RNA1{[moe](A)[sp].[moe](A)p.[moe]([m5C])p.[moe](G)p.[moe]([m5C])p.[moe](A)p.d(A)[sp].d(T)[sp].d(G)[sp].d(T)[sp].d(A)[sp].d(T)[sp].d([m5C])[sp].d(A)[sp].d(G)[sp].d(G)[sp].[moe]([m5C])p.[moe](A)[sp].[moe](A)}$$$$ (last 3' nucleoside missing)” was tested. Which 3 h FOB score did it give?
Answer: Its 3 h FOB score is 4.7 score 0-7.

Question: Which 3 h FOB score does the source give for “RNA1{[moe](A)[sp].[moe](A)p.[moe]([m5C])p.[moe](G)p.[moe]([m5C])p.d(A)[sp].d(A)[sp].d(T)[sp].d(G)[sp].d(T)[sp].d(A)[sp].d(T)[sp].d([m5C])[sp].d(A)[sp].d(G)[sp].[moe](G)p.[moe]([m5C])p.[moe](A)[sp].[moe](A)}$$$$ (last 3' nucleoside missing)” here?
Answer: Its 3 h FOB score is 1 score 0-7.

Question: For “RNA1{[moe](A)[sp].[moe](A)p.[moe]([m5C])p.[moe](G)p.d([m5C])[sp].d(A)[sp].d(A)[sp].d(T)[sp].d(G)[sp].d(T)[sp].d(A)[sp].d(T)[sp].d([m5C])[sp].d(A)[sp].[moe](G)p.[moe](G)p.[moe]([m5C])p.[moe](A)[sp].[moe](A)}$$$$ (last 3' nucleoside missing)”, which 3 h FOB score is on record?
Answer: Its 3 h FOB score is 2 score 0-7.

Question: With “RNA1{[moe](A)[sp].[moe](A)p.[moe]([m5C])p.[moe](T)p.[moe](G)p.d([m5C])[sp].d(T)[sp].d(T)[sp].d([m5C])[sp].d(A)[sp].d([m5C])[sp].d([m5C])[sp].d(A)[sp].d(T)[sp].d(T)[sp].[moe](T)p.[moe](T)p.[moe](G)[sp].[moe](A)}$$$$ (last 3' nucleoside missing)” as the substance, how does the 3 h FOB score read?
Answer: The 3 h FOB score was 0 score 0-7.

Question: With “RNA1{[moe](A)[sp].[moe](A)p.[moe]([m5C])p.[moe](T)p.[moe](T)p.d([m5C])[sp].d(A)[sp].d(T)[sp].d([m5C])[sp].d(A)[sp].d(A)[sp].d(T)[sp].d(A)[sp].d(T)[sp].d(T)[sp].[moe](T)p.[moe]([m5C])p.[moe]([m5C])[sp].[moe]([m5C])}$$$$ (last 3' nucleoside missing)” as the substance, how does the 3 h FOB score read?
Answer: Its 3 h FOB score is 1 score 0-7.

Question: With “RNA1{[moe](A)[sp].[moe](G)p.[moe](A)p.[moe](G)p.[moe](A)p.d([m5C])[sp].d([m5C])[sp].d(T)[sp].d([m5C])[sp].d(A)[sp].d(A)[sp].d(G)[sp].d(A)[sp].d([m5C])[sp].d([m5C])[sp].[moe](T)p.[moe](A)p.[moe](T)[sp].[moe](A)}$$$$ (last 3' nucleoside missing)” as the substance, how does the 3 h FOB score read?
Answer: The 3 h FOB score was 3.8 score 0-7.

Question: For “RNA1{[moe](A)[sp].[moe](G)p.[moe](A)p.[moe](G)p.[moe](G)p.d(A)[sp].d(T)[sp].d(T)[sp].d(T)[sp].d(A)[sp].d(G)[sp].d(A)[sp].d(G)[sp].d(T)[sp].d(T)[sp].[moe](A)p.[moe](A)p.[moe](A)[sp].[moe](A)}$$$$ (last 3' nucleoside missing)”, which 3 h FOB score is on record?
Answer: The 3 h FOB score was 2.8 score 0-7.

Question: With “RNA1{[moe](A)[sp].[moe](G)p.[moe](A)p.[moe](G)p.[moe](G)p.d([m5C])[sp].d([m5C])[sp].d([m5C])[sp].d(T)[sp].d([m5C])[sp].d(T)[sp].d(T)[sp].d(G)[sp].d(T)[sp].d(T)[sp].[moe](T)p.[moe]([m5C])p.[moe](A)[sp].[moe](A)}$$$$ (last 3' nucleoside missing)” as the substance, how does the 3 h FOB score read?
Answer: Its 3 h FOB score is 1.8 score 0-7.

Question: “RNA1{[moe](A)[sp].[moe](G)p.[moe](A)p.[moe](G)p.[moe](T)p.d(A)[sp].d(G)[sp].d(T)[sp].d([m5C])[sp].d(T)[sp].d(A)[sp].d(T)[sp].d(T)[sp].d(G)[sp].d(G)[sp].[moe](T)p.[moe](G)p.[moe](T)[sp].[moe](T)}$$$$ (last 3' nucleoside missing)” was tested. Which 3 h FOB score did it give?
Answer: The 3 h FOB score was 3.8 score 0-7.

Question: For “RNA1{[moe](A)[sp].[moe](G)p.[moe](A)p.[moe](T)p.[moe](A)p.d([m5C])[sp].d(T)[sp].d([m5C])[sp].d(A)[sp].d([m5C])[sp].d(T)[sp].d([m5C])[sp].d(G)[sp].d([m5C])[sp].d(T)[sp].[moe](T)p.[moe](T)p.[moe](T)[sp].[moe]([m5C])}$$$$ (last 3' nucleoside missing)”, which 3 h FOB score is on record?
Answer: The 3 h FOB score was 3.2 score 0-7.

Question: “RNA1{[moe](A)[sp].[moe](G)p.[moe](A)p.[moe]([m5C])p.[moe](T)p.d(A)[sp].d(T)[sp].d([m5C])[sp].d([m5C])[sp].d(T)[sp].d(G)[sp].d(G)[sp].d(T)[sp].d(A)[sp].d(T)[sp].[moe](G)p.[moe](A)p.[moe]([m5C])[sp].[moe](T)}$$$$ (last 3' nucleoside missing)” was tested. Which 3 h FOB score did it give?
Answer: Its 3 h FOB score is 6 score 0-7.

Question: “RNA1{[moe](A)[sp].[moe](G)p.[moe](A)p.[moe]([m5C])p.[moe]([m5C])p.d(T)[sp].d(A)[sp].d(T)[sp].d(A)[sp].d(G)[sp].d(G)[sp].d(A)[sp].d([m5C])[sp].d([m5C])[sp].d(T)[sp].[moe]([m5C])p.[moe](A)p.[moe](G)[sp].[moe](G)}$$$$ (last 3' nucleoside missing)” was tested. Which 3 h FOB score did it give?
Answer: The 3 h FOB score was 4 score 0-7.

Question: “RNA1{[moe](A)[sp].[moe](G)p.[moe](G)p.[moe](A)p.[moe](T)p.d(T)[sp].d(A)[sp].d(A)[sp].d(A)[sp].d(A)[sp].d(G)[sp].d(T)[sp].d(T)[sp].d(G)[sp].d(A)[sp].[moe](A)p.[moe](A)p.[moe]([m5C])[sp].[moe](A)}$$$$ (last 3' nucleoside missing)” was tested. Which 3 h FOB score did it give?
Answer: Its 3 h FOB score is 4 score 0-7.

Question: “RNA1{[moe](A)[sp].[moe](G)p.[moe](G)p.[moe](A)p.[moe](T)p.d(T)[sp].d([m5C])[sp].d(A)[sp].d(A)[sp].d(T)[sp].d(A)[sp].d(G)[sp].d(T)[sp].d(G)[sp].d(T)[sp].[moe](A)p.[moe](G)p.[moe](G)[sp].[moe](T)}$$$$ (last 3' nucleoside missing)” was tested. Which 3 h FOB score did it give?
Answer: The 3 h FOB score was 6.7 score 0-7.

Question: “RNA1{[moe](A)[sp].[moe](G)p.[moe](G)p.[moe](A)p.[moe]([m5C])p.d([m5C])[sp].d(T)[sp].d([m5C])[sp].d(A)[sp].d(G)[sp].d(G)[sp].d(A)[sp].d(G)[sp].d(A)[sp].d(T)[sp].[moe](T)p.[moe](G)p.[moe](T)[sp].[moe](A)}$$$$ (last 3' nucleoside missing)” was tested. Which 3 h FOB score did it give?
Answer: The 3 h FOB score was 2.3 score 0-7.

Reference: the OligoGym collection
